For orientation: IC50 means the concentration needed to halve the response being measured.

Among the data in patent US20060205755A1, “Novel farnesyl protein transferase inhibitors as antitumor agents” (Schering Corporation, priority 2004, published 2006) are IC50 values, retold here.

The test system of one assay is Human tumor cells. The assay is described as follows: Soft Agar Assay (anchorage-independent growth, colony count). Format: cell-based. The settings on record: colony outgrowth 10-16 days at 37° C. The protocol: Anchorage-independent growth is a characteristic of tumorigenic cell lines. Human tumor cells can be suspended in growth medium containing 0.3% agarose and an indicated concentration of a farnesyl transferase inhibitor. The solution can be overlayed onto growth medium solidified with 0.6% agarose containing the same concentration of farnesyl transferase inhibitor as the top layer. After the top layer is solidified, plates can be incubated for 10-16 days at 37° C. under 5% CO2 to allow colony outgrowth. After incubation, the colonies can be stained by overlaying the agar with a solution of MTT (3-[4,5-dimethyl-thiazol-2-yl]-2,5-diphenyltetrazolium bromide, Thiazolyl blue) (1 mg/mL in PBS). Colonies can be counted and the IC50's can be determined.

Assay [1] concerns the target purified human farnesyl protein transferase (Homo sapiens, UniProt P49354+P49356). Kind of assay: FPT activity: transfer of [3H] farnesyl from [3H] farnesyl pyrophosphate to biotinylated H-ras peptide (SPA). The settings on record: 0.03 nM enzyme, 37° C., 60 minutes. It counts as biochemical. The protocol:
FPT activity was determined by measuring the transfer of [^3H] farnesyl from [^3H] farnesyl pyrophosphate to a biotinylated peptide derived from the C-terminus of H-ras (biotin-CVLS). The reaction mixture contains: 50 mM Tris pH7.7, 5 mM MgCl2, 5 μM Zn^++, 5 mM DTT, 0.1% Triton-X, 0.05 μM peptide, 0.03 nM purified human farnesyl protein transferase, 0.180 μM [^3H] farnesyl pyrophosphate, plus the indicated concentration of tricyclic compound or vehicle control in a total volume of 100 μl. The reaction was incubated in a Vortemp shaking incubator at 37° C., 45 RPM for 60 minutes and stopped with 150 μl of 0.25 M EDTA containing 0.5% BSA and 1.3 mg/ml Streptavidin SPA beads. Radioactivity was measured in a Wallach 1450 Microbeta liquid scintillation counter. Percent inhibition was calculated relative to the vehicle control.

For the compound `Cn1cncc1C(NC(=O)OC1(C)CC1)C1=Cc2cccnc2C(C2CCN(C(=O)OC3(C)CC3)CC2)c2ccc(Cl)cc21` (single isomer, unassigned) [Example 4], in the assay on Human tumor cells, the IC50 was at least 9 nM.
Still for that read-out and setting: as for `Cn1cncc1C(NC(=O)OC1(C)CC1)C1=Cc2cccnc2C(=C2CCN(C(=O)OC(C)(C)C)CC2)c2ccc(Cl)cc21` (centres unmarked) [Example 1], the figure is at least 9 nM.
As for `Cn1cncc1C(NC(=O)OC1(C)CC1)C1=Cc2cccnc2C(=C2CCN(C(=O)OC3(C)CC3)CC2)c2ccc(Cl)cc21` (centres unmarked) [Example 2], it took 0.9 nM to reach half-maximal inhibition in assay [1] (IC50). That is a sub-nanomolar value.
The compound `Cn1cncc1C(NC(=O)OC1(C)CC1)C1=Cc2cccnc2C(O)(C2CCN(C(=O)OC(C)(C)C)CC2)c2ccc(Cl)cc21` (centres unmarked) [Example 5] showed an IC50 in the assay with Human tumor cells of at least 9 nM.
Same read-out and setting: the same measure for `Cn1cncc1C(NC(=O)OC1(C)CC1)C1=Cc2cccnc2C(O)(C2CCN(C(=O)OC3(C)CC3)CC2)c2ccc(Cl)cc21` (centres unmarked) [Example 6]: at least 9 nM.
